{"source": "paper PMC5352051", "about": "“Identification of a novel Polo-like kinase 1 inhibitor that specifically blocks the functions of Polo-Box domain” (Oncotarget, 2016)", "key": {"[1]": {"experiment": "Body weight of xenografted nude mice (tolerability)", "type": "in vivo", "conditions": "intratumoral injection 50 and 100 mg/kg, 5 weeks, vs control", "procedure": "(§1) Female athymic nude mice were injected with 2.0 × 10^7 A549 lung-carcinoma cells subcutaneously. After 14~20 days, when the tumor volumes reached 100~150 mm^3, animals were divided into treatment (T521; 50, 100 mg/kg) and control (DMSO) groups with ten mice in each group. T521 (0.2 g/mL) dissolved in DMSO was administered alone and mice were treated with T521 by intratumoral injection at the different injection points according to indicated dose on Wednesdays and Fridays for 5 weeks. Tumor volumes were determined with a caliper on Monday and Thursday during drug administration cycle. Tumor volume (mm^3) was calculated using the following equation: V=L×S^2×π/6, where L is the length and S is width of the tumor. The body weight of these mice was determined as an indicator of tolerability on the same days. Student's t-tests were performed for statistical evaluation among treatment and control groups. All mice were properly treated in accordance with the guidelines of the local animal committee."}, "Plk2": {"target": "T1, Plk2 (Homo sapiens, UniProt Q9NYY3)", "T1 construct": "purchased Sino Biological Inc", "T1 sequence (Q9NYY3 whole entry)": "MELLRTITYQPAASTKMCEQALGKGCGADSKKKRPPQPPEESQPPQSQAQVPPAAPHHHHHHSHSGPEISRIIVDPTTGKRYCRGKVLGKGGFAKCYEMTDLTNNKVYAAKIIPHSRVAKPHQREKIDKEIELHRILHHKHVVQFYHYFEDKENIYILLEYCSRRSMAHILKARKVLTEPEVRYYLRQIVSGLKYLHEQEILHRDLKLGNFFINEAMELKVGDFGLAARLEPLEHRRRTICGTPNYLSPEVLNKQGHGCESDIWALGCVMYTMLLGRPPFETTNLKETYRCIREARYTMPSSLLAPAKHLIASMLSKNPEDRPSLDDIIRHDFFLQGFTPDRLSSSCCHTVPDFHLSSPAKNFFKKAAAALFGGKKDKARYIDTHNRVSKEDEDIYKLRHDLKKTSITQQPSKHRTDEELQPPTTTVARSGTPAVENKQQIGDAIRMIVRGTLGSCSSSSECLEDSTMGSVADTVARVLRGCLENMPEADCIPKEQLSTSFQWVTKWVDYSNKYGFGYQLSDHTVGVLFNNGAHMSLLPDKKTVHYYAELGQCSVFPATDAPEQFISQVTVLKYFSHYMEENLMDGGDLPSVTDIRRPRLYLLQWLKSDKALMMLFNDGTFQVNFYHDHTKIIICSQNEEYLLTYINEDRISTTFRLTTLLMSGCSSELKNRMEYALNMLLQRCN", "experiment": "HPLC-Q-TOF mass spectrometry of intact protein after incubation", "type": "binding", "conditions": "Plk2 10 μM, T521 500 μM, RT, 30 min", "procedure": "(§2) The covalent binding mode was speculated from the interactions between Poloxin, TQ and Plk1 PBD [23]. […] To test this possibility, we incubated purified Plk1 (10 μM) with T521 (500 μM) in 50 mM Tris-HCl (pH8.0) at room temperature for 30 min. […] In contrast, no addition of T521 to Plk2 or Plk3 was detected after their incubation with T521 (Supplementary Figure S1C, S1D, S1E and S1F).\n(§3) Supplementary Figure S1: Analysis of binding mode between T521 and Plk1-3 using HPLC-Q-TOF MS. Plk1-3 (10 μM) proteins were incubated with or without T521 (500 μM) in 50 mM Tris-HCl (pH8.0) at RT for 30 min. The desalted samples (5 μg) were eluted with an HPLC gradient program into a Q-TOF mass spectrometer (Agilent, USA). Mass spectra were obtained after deconvolution.\n(§4) A, C, E. The analysis of Plk1-3 proteins after incubation in the absence of T521. B, D, F. The analysis of Plk1-3 proteins after incubation […]\n(§5) (also on this page, place not known: www.impactjournals.com/oncotarget/ Oncotarget, Materials 2016 Supplementary) […]"}, "Plk1": {"target": "T2, Plk1 (Homo sapiens, UniProt P53350)", "T2 construct": "purchased Sino Biological Inc", "T2 sequence (P53350 whole entry)": "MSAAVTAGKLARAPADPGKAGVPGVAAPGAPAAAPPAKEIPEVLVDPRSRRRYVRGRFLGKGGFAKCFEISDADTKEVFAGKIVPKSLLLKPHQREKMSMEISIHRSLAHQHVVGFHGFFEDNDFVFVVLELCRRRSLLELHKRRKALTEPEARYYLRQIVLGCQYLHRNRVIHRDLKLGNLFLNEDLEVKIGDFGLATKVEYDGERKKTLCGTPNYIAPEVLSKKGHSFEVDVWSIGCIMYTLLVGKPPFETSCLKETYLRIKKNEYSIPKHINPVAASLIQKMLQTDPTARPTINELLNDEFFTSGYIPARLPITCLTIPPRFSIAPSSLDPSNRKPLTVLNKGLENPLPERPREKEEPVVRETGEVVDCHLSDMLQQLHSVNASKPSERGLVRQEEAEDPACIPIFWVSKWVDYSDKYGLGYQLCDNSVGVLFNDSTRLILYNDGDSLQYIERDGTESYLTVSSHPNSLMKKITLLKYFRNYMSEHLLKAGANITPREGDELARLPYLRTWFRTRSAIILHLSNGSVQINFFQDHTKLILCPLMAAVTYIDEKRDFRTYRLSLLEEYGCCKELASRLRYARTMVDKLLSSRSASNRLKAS", "experiment": "HPLC-Q-TOF mass spectrometry of intact protein after incubation", "type": "binding", "conditions": "Plk1 10 μM, T521 500 μM, 50 mM Tris-HCl pH8.0, RT, 30 min", "procedure": "as §2, §3, §4, §5"}, "Plk3": {"target": "T3, Plk3 (Homo sapiens, UniProt Q9H4B4)", "T3 construct": "purchased Sino Biological Inc", "T3 sequence (Q9H4B4 whole entry)": "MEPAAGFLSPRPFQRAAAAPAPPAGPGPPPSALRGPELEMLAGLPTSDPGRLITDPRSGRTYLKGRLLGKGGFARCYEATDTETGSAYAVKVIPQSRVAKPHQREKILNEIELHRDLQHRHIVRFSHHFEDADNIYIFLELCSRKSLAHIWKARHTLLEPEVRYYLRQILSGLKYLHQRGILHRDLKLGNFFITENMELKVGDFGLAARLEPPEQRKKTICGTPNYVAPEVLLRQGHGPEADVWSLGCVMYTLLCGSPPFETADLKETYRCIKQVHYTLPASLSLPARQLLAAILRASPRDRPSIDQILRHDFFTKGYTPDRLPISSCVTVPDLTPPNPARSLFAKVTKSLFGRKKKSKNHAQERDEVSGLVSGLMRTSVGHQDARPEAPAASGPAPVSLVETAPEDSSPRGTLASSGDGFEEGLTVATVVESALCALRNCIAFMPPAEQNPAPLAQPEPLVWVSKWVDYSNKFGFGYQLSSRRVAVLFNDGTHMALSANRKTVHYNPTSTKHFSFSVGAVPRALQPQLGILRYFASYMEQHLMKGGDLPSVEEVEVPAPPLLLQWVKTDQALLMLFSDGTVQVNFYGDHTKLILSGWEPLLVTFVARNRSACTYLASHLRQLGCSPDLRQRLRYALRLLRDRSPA", "experiment": "HPLC-Q-TOF mass spectrometry of intact protein after incubation", "type": "binding", "conditions": "Plk3 10 μM, T521 500 μM, RT, 30 min", "procedure": "as §2, §3, §4, §5"}, "[2]": {"tested_on": "12 human cancer cell lines", "experiment": "MTT assay, panel of cancer cell lines", "type": "cell-based", "conditions": "all tested 12 human cancer cell lines; read-out: IC50 proliferation, range over cell lines", "procedure": "(§6) The MTT assay was performed as described. In brief, cells were seeded at 3000~5000 cells/well into 96-well plates (200 μL/well) and incubated overnight. We replaced the growth medium with fresh medium containing T521 at several concentrations (two-fold dilutions and the initial concentration is 50 μM, 10 reactions total). After further incubation for 48 hrs in the presence of T521, the medium was removed from all wells and the cells were incubated with 200 μL of fresh medium for additional 24 hrs. We then added 22 μL of MTT solution (Amresco; 5 mg/mL in PBS) to each well and incubated the plate for 4 hrs at 37°C. After removing the medium, we dissolved the purple MTT-formazan crystals by adding 150 μL of DMSO to each well and recorded absorbance at 560 nm by Envision Multilabel Reader (PerkinElmer). The inhibition curve was plotted to determine the IC50 of various cell lines using GraphPad Prism5.0."}, "[3]": {"tested_on": "A549 lung-carcinoma cells", "experiment": "A549 xenograft in nude mice, tumor volume", "type": "in vivo", "conditions": "intratumoral injection 50 and 100 mg/kg, Wednesdays and Fridays, 5 weeks, vs DMSO", "procedure": "as §1"}, "[4]": {"tested_on": "Plk1, Cyclin B1 and pHH-3 in HeLa cells", "experiment": "Western blot of mitotic markers", "type": "cell-based, human", "conditions": "synchronized HeLa, indicated concentrations, 16 hrs", "procedure": "HeLa cells were collected after trypsinization and lysed with RIPA buffer. Equal amount of proteins (30 μg/lane) were loaded, separated by 15% SDS-PAGE. After blocking with blocking buffer for 2 hrs at RT, the membrane was incubated with the following primary antibodies diluted in blocking buffer overnight at 4°C: anti-hPlk1 mouse monoclonal antibody (Cat# P5998; Sigma; 1:3000), anti-CyclinB1 rabbit polyclonal antibody (Cat# SAB4503501; Sigma; 1:2000), anti-pHH3 rabbit monoclonal antibody (Cat# 04-817; Millipore; 1:2000), anti-GAPDH rabbit polyclonal antibody (Cat# P30008; Abmart; 1:2000). The membrane was washed 3 times and then incubated with Horseradish Peroxidase-conjugated secondary antibodies for 1 hr at RT and visualized with ECL system (Millipore). The level of GAPDH was used as the loading control."}, "Plk1 PBD": {"target": "T4, Plk1 PBD (Homo sapiens, UniProt P53350)", "T4 construct": "(326-603 aa), Plk2 (355-685 aa), and Plk3 (335-646 aa); 6xHis (N); 6xHis (C); made in house; host or cells: E. coli Rosetta BL21(DE3)", "T4 sequence (P53350 326-603)": "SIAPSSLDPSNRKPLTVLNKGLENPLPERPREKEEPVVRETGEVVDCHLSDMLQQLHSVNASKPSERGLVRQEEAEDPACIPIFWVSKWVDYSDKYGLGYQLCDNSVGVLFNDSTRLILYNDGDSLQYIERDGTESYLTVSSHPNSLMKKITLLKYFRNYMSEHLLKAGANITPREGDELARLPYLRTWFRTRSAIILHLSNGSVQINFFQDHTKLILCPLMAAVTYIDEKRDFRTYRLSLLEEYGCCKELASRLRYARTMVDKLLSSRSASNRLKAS", "experiment": "Fluorescence polarization assay, Plk1 PBD / FITC-Poloboxtide", "type": "binding", "procedure": "FP assay was performed as follow. […] We calculated the percentage of inhibition for each sample as follows: Inhibition(%)=Negative−Sample/Negative−Positive×100%\nWe plotted the inhibition values and determined IC50 using GraphPad Prism5.0. Together with the FITC-labeled peptides used for Plk1 PBD as mentioned above, the following peptides were used for specificity assays, FITC-GPMQTSpTPKNG-OH (Plk2 PBD), FITC-GPLATSpTPKNG-OH (Plk3 PBD)."}, "[5]": {"tested_on": "normal cell lines, MRC5, HEK-293 and L02 cells", "experiment": "MTT assay, panel of normal cell lines", "type": "cell-based", "conditions": "Homo sapiens; three exponentially growing normal cell lines; read-out: IC50 proliferation, range over cell lines", "procedure": "as §6"}, "HeLa cells": {"tested_on": "HeLa cells", "experiment": "Cell cycle analysis by flow cytometry (DNA content)", "type": "cell-based, human", "conditions": "synchronized HeLa, 10 μM", "procedure": "HeLa cells (1.0×10^5 cells/well) were synchronized at G1/S boundary by double-thymidine block and then released into various media with indicated reagents. For cell cycle analysis, HeLa cells were harvested at different time points, washed twice with PBS, fixed in ice-cold 70% ethanol for 30 min at 4°C, and incubated with 500 μL of Propidium Iodine (Sigma; 10 μg/mL) and RNase A (Sigma; 1 mg/mL) for 30 min at 37°C in the dark prior to flow cytometry analysis (FACScan, BD Biosciences)."}}, "data": [{"smiles": "CCS(=O)(=O)c1oc(-c2ccc(F)cc2)nc1S(=O)(=O)c1ccccc1", "note": "[T521, 5-(ethylsulfonyl)-2-(4-fluorophenyl)-4-(phenylsulfonyl) oxazole]", "values": [{"measurement": "tolerability by body weight", "setting": "[1]", "result": "well tolerated"}, {"measurement": "covalent addition to protein", "setting": "Plk2", "result": "no addition"}, {"measurement": "increase of intact mass of protein (covalent addition)", "setting": "Plk1", "result": 907.05, "unit": "Da"}, {"measurement": "covalent addition to protein", "setting": "Plk3", "result": "no addition"}, {"measurement": "IC50", "setting": "[2]", "result": "1000 to 5000", "unit": "nM"}, {"measurement": "tumor volume", "setting": "[3]", "result": "obvious reduction of tumor volume"}, {"measurement": "mitotic markers (Plk1, Cyclin B1, pHH-3) protein levels", "setting": "[4]", "result": "accumulation of these mitotic markers"}, {"measurement": "temperature dependence of inhibition of Plk1 PBD / FITC-Poloboxtide interaction", "setting": "Plk1 PBD; 1 hr incubation at indicated temperatures", "result": "more efficient at higher temperatures"}, {"measurement": "IC50", "setting": "Plk1 PBD; Plk1 PBD, FP assay, 1 hr preincubation at RT, read-out: Apparent IC50", "result": "1220 ± 130", "unit": "nM"}, {"measurement": "time dependence of inhibition of Plk1 PBD / FITC-Poloboxtide interaction", "setting": "Plk1 PBD; incubation for indicated times at RT", "result": "inhibition increased over time"}, {"measurement": "IC50", "setting": "[5]", "result": "3000 to 10000", "unit": "nM"}, {"measurement": "cells with 4C DNA content", "setting": "HeLa cells; 16 hrs after release", "result": "about 40%"}, {"measurement": "cells remaining in G2/M phase", "setting": "HeLa cells; entire course (24 hrs)", "result": "At least 20%"}]}]}
